# Assay: Pharmacokinetic study of GT in DcNPs compared to CrEL (Example 2), plasma G, T and dFdU
# Format: in vivo, BALB/c mice
# From the text: Drugs extracted from biological matrices such as plasma or tissue homogenates were quantified by a Shimadzu HPLC system coupled to a 3200 QTRAP mass spectrometer (Applied Biosystems, Grand Island, N.Y.). The HPLC system consisted of two Shimadzu LC-20A pumps, a DGU-20A5 degasser, and a Shimadzu SIL-20AC HT autosampler. The mass spectrometer was equipped with an electrospray ionization (ESI) TurbolonSpray source. The system was operated with Analyst software, version 1.5.2 (ABSciex, Framingham, Mass.). Chromatographic separation of G and T was achieved using a Synergi column (100×2.0 mm; 4-μm particle size) (Phenomenex, Torrance, Calif.) with an inline C8 guard column (4.0×2.0 mm) also from Phenomenex. The flow rate was set to 0.5 mL/min with a 5 μl sample injection volume. The mobile phase for separation consisted of pump A (20 mM Ammonium Acetate in water) and B (Reagent Alcohol). […] The needle was washed with isopropanol after each injection. Analytes were monitored using multiple-reaction monitoring (MRM) for positive ions.
# Statistical comparisons were performed using 2-sided t-tests with Welch's correction for unequal variances. Significance probability α was set at 0.05. Pharmacokinetic parameters from non-compartmental analysis were calculated using the trapezoidal rule and relevant pharmacokinetic equations shown in Table 3.
structure (smiles),measurement,setting,value
"O=c1ccn([C@@H]2O[C@H](CO)[C@@H](O)C2(F)F)c(=O)[nH]1 [dFdU, 2′,2′-difluoro-deoxyuridine]",plasma dFdU times higher than G at 3 hours,CrEL control dosage form,50 times
same,plasma dFdU times lower than G at 3 hours,GT DcNP dosage form,3.4 times
same,plasma concentration within 15 minutes,"after GT in CrEL control dosage form IV, mice",11836.7 ng/mL
same,concentration at 3 h,"female, BALB/c, mouse, plasma, intravenous, after control CrEL dosing, 50/5 mg/kg G/T IV, mice",4340 ng/mL
